Laboratory results from US20150322033A1, “ANTIBACTERIAL AGENT” (priority 2012, published 2015).
In brackets after ≈: the same amount, converted by molar mass. Where two headings read alike, the source gives them in different places.

Columns and labels:
[1] = test system: S. aureus FDA209P (ATCC 6538P); experiment: microbe, parasite or virus in culture; assay type: cell-based, Staphylococcus aureus; conditions: Staphylococcus aureus
Outline: (§1)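 Overnight TSB cultures at 37 °C adjusted to A578 0.3, diluted 500-fold in CAMHB and mixed 1:1 with compound in CAMHB; static overnight incubation at 37 °C. MIC reported in mg/L; Mu50 NR-1 also tested in some runs.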

[2] = test system: S. aureus Mu50; experiment: microbe, parasite or virus in culture; assay type: cell-based, Staphylococcus aureus; conditions: for MIC: Staphylococcus aureus; for MIC ratio: (MIC value for S. aureus FDA209P)/(MIC value for S. aureus Mu50)
Outline: as §1

[3] = biological target: T1, GyrA(wt) + GyrB(wt) (Staphylococcus aureus, UniProt P20831); experiment: DNA cleavage assay with GyrA(wt) and GyrB(wt); assay type: biochemical; conditions: for Ratio of cleaved DNA (%) / Ratio of substrate plasmid DNA (%): Table 18
T1 construct: made in house; host or cells: E. coli BL21(DE3)
Source text: The gene sequence encoding the wild-type GyrA of Staphylococcus aureus (henceforth also referred to as “GyrA(wt)”) shown as SEQ ID NO: 1 was cloned into the plasmid pMAL-c2 (produced by New England Biolabs) (the resultant is henceforth also referred to as “pMAL-c2-gyrA”).
The gene sequence encoding the wild-type GyrB of Staphylococcus aureus (henceforth also referred to as “GyrB(wt)”) shown as SEQ ID NO: 2 was cloned into the plasmid pMAL-c2 (produced by New England Biolabs) (the resultant is henceforth also referred to as “pMAL-c2-gyrB”).
(§2) E. coliBL21(DE3) (produced by Invitrogen) was transformed with pMAL-c2-gyrA mentioned above, with pMAL-c2-gyrB mentioned above, or with pMAL-c2-SAGAmut84 containing a mutant gyrA encoding the amino acid sequence of GyrA(wt) in which serine residue at the 84th position from the amino terminus is substituted with a leucine residue (see, Hiramatsu K., Igarashi M., Morimoto Y, Baba T., Umekita M., Akamatsu Y., Int. J. Antimicrob. Agents, 2012 June; 39(6), 478-85). To the culture medium of the resulting transformed Escherichia coli, 1 mM […] (produced by Wako Pure Chemical Industries) was added to induce expression of maltose-binding GyrA(wt), maltose-binding GyrB(wt), or maltose-binding mutant GyrA(S84L), and the bacterium was cultured overnight at 25° C. After completion of the culture, the cells were collected, and suspended in a buffer (20 mM Tris-HCl (pH 8.0), 200 mM sodium chloride, 1 mM ethylenediaminetetraacetic acid (EDTA), 1 mM dithiothreitol (DTT)), a protein extracting reagent (10× BugBuster (registered trademark), produced by Novagen) in a volume of 1/10 of the volume of the buffer, and 2.5 μL/10 mL of the buffer of Benzonase (registered trademark) nuclease (produced by Novagen) were added, the mixture was left standing at 25° C. for 30 minutes, and the cells were disrupted and lysed to obtain a disrupted cell suspension containing the maltose-binding GyrA(wt), maltose-binding GyrB(wt), or maltose-binding mutant GyrA(S84L).
(§3) Then, each disrupted cell suspension mentioned above was added to a column filled with an amylose resin covalently bound with maltose (produced by Novagen). A buffer (20 mM Tris-HCl (pH 8.0), 200 mM sodium chloride, 1 mM EDTA) containing 10 mM maltose was added to the column to elute the maltose-binding GyrA(wt), maltose-binding GyrB(wt), and maltose-binding mutant GyrA(S84L).
(§4) To each eluate, 4 units/1 mL of the eluate of protease (Factor Xa, produced by Amersham) was added, and the mixture was left standing at 25° C. for 3 hours and 30 minutes to cleave the maltose-binding proteins, GyrA(wt), GyrB(wt), and mutant GyrA(S84L) from the maltose-binding GyrA(wt), maltose-binding GyrB(wt), and maltose-binding mutant GyrA(S84L).
(§5) Then, GyrA(wt), GyrB(wt), and mutant GyrA(S84L) were concentrated by using an ultrafiltration unit (YM-50 Filter Unit, produced by Millipore).
(§6) The concentrated GyrA(wt), GyrB(wt), and mutant GyrA(S84L) were each suspended in a buffer (35 mM Tris-HCl (pH 7.5), 24 mM potassium chloride, 6 mM magnesium chloride, 1.8 mM spermidine, 0.36 mg/mL bovine serum albumin, 5 mM DTT, 50 volume % glycerol) at a concentration of 1 μg/μL for GyrA(wt), 2 μg/μL for GyrB(wt), or 1 μg/μL for mutant GyrA(S84L).
A substrate plasmid DNA, pTWV228 (0.4 μg, produced by Takara Bio), and levofloxacin (LVFX) or apigenin were added to a buffer (35 mM Tris-HCl (pH 7.5), 24 mM potassium chloride, 6 mM magnesium chloride, 1.8 mM spermidine, 0.36 mg/mL bovine serum albumin, 5 mM DTT), and 0.15 μL of the enzyme solution of GyrA(wt) and […] of the enzyme solution of GyrB(wt) were added to the mixture to prepare a reaction mixture in a total volume of 20
Levofloxacin was added at a final concentration of 0, 0.5, 1, 2, 4, 8, 16, or 32 μg/mL.
The aforementioned reaction solution was left standing at 25° C. for 30 minutes to allow the reaction. […]

[4] = biological target: T2, GyrA(S84L) + GyrB(wt) (Staphylococcus aureus, UniProt P20831, S84L); experiment: DNA cleavage assay with mutant GyrA(S84L) and GyrB(wt); assay type: biochemical; conditions: IC50 (μg/mL) GyrA(S84L) + GyrB(wt), Example 9, Table 18
T2 construct: made in house; host or cells: E. coli BL21(DE3)
Source text: as §2, §3, §4, §5, §6
An assay was performed in the same manner as that of the cleavage of the plasmid DNA with GyrA(wt) and GyrB(wt) mentioned above, provided that 0.15 μL of an enzyme solution of mutant GyrA(S84L) and 0.2 μL of the enzyme solution of GyrB(wt) were added instead of […] of the enzyme solution of GyrA(wt) and 0.2 μL of the enzyme solution of GyrB(wt). In FIGS. 3 and 4, the symbols “S”, “L”, and “N” have the same meanings as those explained for FIGS. 1 and 2.
IC50 value of levofloxacin or apigenin was also calculated from the visualized images shown in FIGS. 3 and 4 in the same manner as that used for the calculation using the results shown in FIGS. 1 and 2.
The DNA cleavage assay was performed with M-246 in the same manner as that used in Example 4.

[5] = test system: S. aureus Mu50 NR1-1; experiment: MIC by broth microdilution, S. aureus Mu50 NR1-1; assay type: cell-based; conditions: Staphylococcus aureus, MU50NR11; Example 3, Table 13; read-out: MIC (mg/L) Mu50 NR1-1 (S80F, w)
Protocol: MIC values of the flavones and quinolone for the strains were measured in the same manners as those of Example 1, except that S. aureus Mu50 NR-1 was also used as Staphylococcus aureus in addition to S. aureus FDA209P and S. aureus Mu50, cell suspensions of the strains were prepared.
S. aureus Mu50 NR1-1 mentioned in Table 13 is a strain selected stepwise from the clinically isolated S. aureus Mu50 strain with deoxynybomycin, and it has a topoisomerase IV encoded by parC in which a […] (see, Hiramatsu K. et al., J. Antimicrob. Agents, 2012, June; 39 (6), 478-85).
In Table 13, the descriptions in the parentheses after the strains indicate the mutated amino acid residue and its position, as represented by (the mutation of topoisomerase IV resulting from the mutation of parCand the mutation of DNA gyrase resulting from the mutation of gyrA). The character “w” means wild-type, representing without mutation.

[6] = Example 1, Tables 1 to 10, read-out: MIC (mg/L) FDA209P
[7] = Example 2, Table 12, read-out: MIC (mg/L) S. aureus FDA209P
[8] = Example 3, Table 13, read-out: MIC (mg/L) FDA209P (w, w)
[9] = MU50, read-out: MIC (mg/L) Mu50, Example 1, Tables 1 to 10
[10] = MU50, read-out: MIC (mg/L) S. aureus Mu50, Example 2, Table 12
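For MIC ratio in this document: ratio is FDA209P MIC divided by Mu50 MIC.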

Row | SMILES | MIC [1, 6] [mg/L] | MIC [1, 7] [mg/L] | MIC [1, 8] [mg/L] | MIC ratio [2] | MIC [2, 9] [mg/L] | MIC [2, 10] [mg/L] | MIC [5] [mg/L] | further results
1 | COc1ccc2c(=O)cc(-c3ccc(O)c(OC)c3)oc2c1 [M-246] | – | – | – | – | – | – | – | MIC ([1]; Example 8, Table 17, read-out: MIC FDA209P): 128 mg/L (≈ 429 µM); MIC ([2]; MU50, read-out: MIC Mu50, Example 8, Table 17): 4 mg/L (≈ 13.4 µM); Ratio of cleaved DNA (%) ([3]; 0.5 μg/mL): 18%; Ratio of substrate plasmid DNA (%) ([3]; 0.5 μg/mL): 82%; Ratio of cleaved DNA (%) ([3]; 1 μg/mL): 23%; Ratio of substrate plasmid DNA (%) ([3]; 1 μg/mL): 77%; Ratio of cleaved DNA (%) ([3]; 2 μg/mL): 29%; Ratio of substrate plasmid DNA (%) ([3]; 2 μg/mL): 71%; Ratio of cleaved DNA (%) ([3]; 4 μg/mL): 40%; Ratio of substrate plasmid DNA (%) ([3]; 4 μg/mL): 60%; Ratio of cleaved DNA (%) ([3]; 8 μg/mL): 47%; Ratio of substrate plasmid DNA (%) ([3]; 8 μg/mL): 53%; Ratio of cleaved DNA (%) ([3]; 16 μg/mL): 56%; Ratio of substrate plasmid DNA (%) ([3]; 16 μg/mL): 44%; Ratio of cleaved DNA (%) ([3]; 32 μg/mL): 67%; Ratio of substrate plasmid DNA (%) ([3]; 32 μg/mL): 33%; IC50 ([3]; IC50 (μg/mL) GyrA(wt) + GyrB(wt), Example 9, Table 18): 53.6 µM; IC50 [4]: 3.35 µM
2 | COc1cc(O)c2c(=O)c(OC)c(-c3cc(O)c(OC)c(OC)c3)oc2c1 [No. 24, 5-hydroxy-2-(3-hydroxy-4,5-dimethoxyphenyl)-3,7-dimethoxychromen-4-one] | 128 (≈ 342 µM) | 128 (≈ 342 µM) | 128 (≈ 342 µM) | 16 | 8 (≈ 21.4 µM) | 8 (≈ 21.4 µM) | 128 (≈ 342 µM) | –
3 | COc1cc(-c2oc3c(OC)c(O)cc(O)c3c(=O)c2O)ccc1O [No. 38, 3,5,7-trihydroxy-2-(4-hydroxy-3-methoxyphenyl)-8-methoxychromen-4-one] | 128 (≈ 370 µM) | 128 (≈ 370 µM) | 128 (≈ 370 µM) | 4 | 32 (≈ 92.4 µM) | 32 (≈ 92.4 µM) | 64 (≈ 185 µM) | –
4 | COc1cc(O)c2c(=O)c(OC)c(-c3ccc(O)c(OC)c3)oc2c1 [No. 66, 5-hydroxy-2-(4-hydroxy-3-methoxyphenyl)-3,7-dimethoxychromen-4-one] | 128 (≈ 372 µM) | 128 (≈ 372 µM) | 128 (≈ 372 µM) | 4 | 32 (≈ 92.9 µM) | 32 (≈ 92.9 µM) | 128 (≈ 372 µM) | –
5 | COc1ccc2c(=O)cc(-c3ccc(O)cc3)oc2c1 [No. 69, 2-(4-hydroxyphenyl)-7-methoxychromen-4-one] | > 128 | 128 (≈ 477 µM) | > 128 | 16 | 16 (≈ 59.6 µM) | 8 (≈ 29.8 µM) | > 128 | –
6 | CCn1cc(C(=O)O)c(=O)c2cc(F)c(N3CCNCC3)cc21 [Norfloxacin, norfloxacin, reference compound] | – | 0.5 (≈ 1.57 µM) | 0.5 (≈ 1.57 µM) | 0.008 | – | 64 (≈ 200 µM) | 16 (≈ 50.1 µM) | –
